The results in this text go back to EPA's ToxValDB 9.5.

Several values for one entry are separate records, joined by “and”; a condition that tells them apart may be missing. Equal entries are not always repeated.

Data set [1] deals with Mus musculus. As to conditions: for NOAEL / LOAEL: B6C3F1.
For data set [2], the system named is Rattus norvegicus. The note with it: for LC50 / LD50: acute.
The subject of data set [3] is Rattus norvegicus. The note with it: subchronic, oral; for NOEL: gavage.
In data set [4] the test system is Rattus norvegicus. As to conditions: M/F.
The test system of data set [5] is Rattus norvegicus. The note with it: oral, M/F, neurological.
In data set [6] the test system is Rattus norvegicus.
[7] abbreviates: short-term, duration: 2 weeks, inhalation.
Where [8] appears, read: short-term, duration: 2 weeks, oral, gavage.
The mark [9] stands for this setting: subchronic, duration: 13 weeks, inhalation.
Setting [10] is: subchronic, duration: 13 weeks, oral, gavage.
[11] abbreviates: short-term, duration: 2 weeks, oral, gavage, Fischer 344.
Setting [12] is: subchronic, duration: 13 weeks, inhalation, Sprague-Dawley.
The mark [13] stands for this setting: subchronic, duration: 13 weeks, oral, gavage, F, Fischer 344.
[14] abbreviates: subchronic, duration: 13 weeks, oral, gavage, M, Fischer 344.
Where [15] appears, read: developmental, oral, reduced body weight gain in parental animals and pups.
The mark [16] stands for this setting: subchronic, oral, kidney lesions.
Setting [17] is: reproduction developmental, oral, reduced body weight gain in f1 females.
[18] abbreviates: chronic, duration: 2 years, oral, diet, increased liver weight.
Where [19] appears, read: reproduction developmental, oral, kidney, spleen, liver, and bone marrow toxicity.
[20] abbreviates: subchronic, duration: 90 days, oral, diet, increased liver weight, serum cholesterol, hepatic aminopyrine n-demethylase activity, and alanine transaminase levels.
The mark [21] stands for this setting: chronic, inhalation, increased kidney, adrenal and pituitary weight.
[22] abbreviates: developmental, inhalation, Reduced maternal weight gain.

For `C=CC1CC=CCC1` (configuration not stated) [4-Vinylcyclohexene], the LC50 in data set [1] (acute, inhalation) is 46900 mg/m3; in data set [2] (inhalation), 27000 mg/m3 and < 35400 mg/m3. For the same compound, the no-observed-adverse-effect level (NOAEL) in data set [1] (setting [7]) worked out at 3190 mg/m3; in data set [1] (setting [8]) it was 1250 mg/kg-day; in data set [1] (setting [9]) it was 1110 mg/m3; in data set [1] (setting [10]), 600 mg/kg-day; in data set [2] (setting [11]), 600 mg/kg-day; in data set [2] (setting [12]) it was 1110 mg/m3. In addition, the no observed adverse effect level (NOAEL) in data set [2] (setting [13]) worked out at 400 mg/kg-day; in data set [2] (setting [14]), 200 mg/kg-day. Further, the LOAEL in data set [1] (setting [8]) was 2500 mg/kg-day; in data set [1] (setting [9]), 4420 mg/m3; in data set [1] (setting [10]) it was 1200 mg/kg-day; in data set [2] (setting [11]), 1250 mg/kg-day; in data set [2] (setting [12]), 4420 mg/m3; in data set [2] (setting [13]), 800 mg/kg-day. Also, in data set [2] (setting [14]), the lowest observed adverse effect level (LOAEL) stood at 400 mg/kg-day. The compound also had an LD50 in data set [2] (oral, gavage, Carworth Wistar) of 2560 mg/kg. In addition, the NOAEC in data set [2] (short-term, duration: 2 weeks, inhalation, F, Sprague-Dawley) worked out at 6640 mg/m3; in data set [2] (short-term, duration: 2 weeks, inhalation, M, Sprague-Dawley), 3190 mg/m3. Besides, the NOEL in data set [3] (duration: 13 weeks, M/F, Fischer 344, Deaths + Body Weight Changes: decrease + Histopathology: Kidney-Hyaline droplet degeneration Glandular stomach-Inflammation) was under 50 mg/kg-day; in data set [3] (M, Sprague-Dawley, Clinical Observation: Salivation Locomotor activity decrease + Relative Organ Weight: Kidney increase + Histopathology: Stomach/Glandular …) it was under 2 mg/kg-day.

Turning to `CCN(CC)C(=O)C(C)Oc1cccc2ccccc12` (configuration not stated) [Napropamide], in data set [4] (setting [15]), the LEL was 100 mg/kg-day and the NOEL came to 30 mg/kg-day.

On to `Clc1ccc(C(Cl)(Cl)Cl)cn1` [2-Chloro-5-trichloromethylpyridine], for which the no observed adverse effect level (NOAEL) in data set [1] (setting [7]) is 9.44 mg/m3; in data set [2] (short-term, duration: 2 weeks, Inhalation, Fischer 344), 9.44 mg/m3. Moreover, the LC50 in data set [2] (Inhalation, Fischer 344) is over 108 mg/m3. Moreover, in data set [2] (oral, gavage, Sprague-Dawley), the 50% lethal dose (LD50) was ≥ 500 mg/kg and ≤ 1000 mg/kg.

In data set [4] (setting [16]), `Clc1cc(Cl)c(Cl)cc1Cl` [1,2,4,5-Tetrachlorobenzene] had an LOAEL of 3.4 mg/kg-day and an NOAEL of 0.34 mg/kg-day.

`C[CH2][Pb]([CH2]C)([CH2]C)[CH2]C` [Tetraethyl lead] registered an LOAEL in data set [4] (subchronic, oral, histopathology: liver and thymus) of 0.0017 mg/kg-day.

`CCCCCCCCCCCCN` [1-Dodecanamine]: the LD50 was 1160 mg/kg in data set [1] (acute, oral, gavage); 1020 mg/kg in data set [2] (oral, gavage); over 2000 mg/kg in data set [2] (oral, gavage, Wistar).

With `Nc1ccc(Cl)cc1` [4-Chloroaniline], the LOAEL in data set [4] (chronic, oral, nonneoplastic lesions of splenic capsule) worked out at 12.5 mg/kg-day.

In data set [4] (setting [17]), `CNC(=O)N(C)c1nnc(C(C)(C)C)s1` [Tebuthiuron] yielded an LEL of 14 mg/kg-day and an NOEL of 7 mg/kg-day.

With `CC1(C)C(C=C(Cl)Cl)C1C(=O)OCc1cccc(Oc2ccccc2)c1` (configuration not stated) [Permethrin], the LEL in data set [4] (setting [18]) worked out at 25 mg/kg-day; in data set [6] (uterotrophic, duration: 3 days, injection, subcutaneous, Active), 800 mg/kg-day. The NOEL in data set [4] (setting [18]) was 5 mg/kg-day; in data set [6] (Hershberger, duration: 10 days, oral, gavage, Sprague-Dawley, inactive + Negative + Negative + neither + no effects on PPS, AST, testis/epididymal wt, serum testosterone, and liver wt increased 11% at …), 120 mg/kg-day. For the same compound, the no observed adverse effect level (NOAEL) stood at 25 mg/kg-day in data set [5] (acute, duration: 1 days, gavage, Long-Evans) and 15.5 mg/kg-day in data set [5] (subchronic, duration: 13 weeks, diet, Sprague-Dawley).

In the case of `CC(C)OC(=O)Nc1cccc(Cl)c1` [Chlorpropham], the NOAEL in data set [3] (duration: 90 days, diet, M/F, Fischer 344, Clinical Observation: Pale + Body Weight Changes: decrease + Hematology: RBC decrease, HGB decrease, HCT decrease, MCV increase, MCH …) is under 720 mg/kg-day. In data set [4] (setting [19]), the LEL turned out to be 150 mg/kg-day and the NOEL was found to be 50 mg/kg-day.

In data set [4] (setting [20]), `CC(C)(C)[C@H](O)[C@H](Cc1ccc(Cl)cc1)n1cncn1` (racemic) [Paclobutrazol] gave an LEL of 62.5 mg/kg-day and an NOEL of 12.5 mg/kg-day.

On to `FC(F)Cl` [Chlorodifluoromethane], for which, in data set [4] (setting [21]), the lowest-observed-adverse-effect level (LOAEL) worked out at 177000 mg/m3 and the NOAEL stood at 35400 mg/m3. In data set [4] (setting [22]), the LOAEL was 177000 mg/m3 and the NOAEL is 3540 mg/m3.

Broadly, the NOAEL is the highest dose or exposure tested at which no adverse effect was seen. One may read the LOAEL as the lowest tested level that showed an adverse finding. The LD50 is the dose expected to kill half of the subjects tested. A high value points to lower toxicity.
